From patent US20250325676A1, “CAMPTOTHECIN PRODRUG AND PHARMACEUTICAL COMPOSITION THEREOF” (TIANJIN HEMAY ONCOLOGY PHARMACEUTICAL CO., LTD, priority 2022, published 2025)

Tests used:
NCI-N87 = test: In vitro inhibition of human tumor cells, NCI-N87, MTT method; assay type: cell-based
[1] = test system: human colon cancer HCT116; conditions: 30 mg/kg i.v. qw × 2; HCT116 large tumor after irinotecan
Text: When the tumor volume was more than 600 mm^3 and stable growth was maintained, the experimental animals were randomly divided by the remainder method and administered according to the size of the tumor volume. […] The subcutaneous tumors were stripped and weighed.
T was the subject and C is the model control.
Tumor volume growth was observed on a regular basis after completion of dosing.

MDA-MB-468 = test: In vitro inhibition of human tumor cells, MDA-MB-468, SRB method
Description: 1.1.2 Cell culture method: Cells were cultured in complete medium, 37° C., 5% CO2, saturated humidity to log growth phase (adherent cells generally attended to complete fusion), and cells were collected for subsequent experiments (adherent cells were first digested with trypsin/ethylene diamine tetraacetic acid (EDTA) to remove adherent).
1.1.3 96-well cell culture plates (hereinafter referred to as 96-well plates) were inoculated with a certain number of cells (see Table 1 for details). The cells were allowed to adhere overnight. […] Finally, the total amount of cell protein in the assay wells was determined by the SRB method, or the cell viability was determined by the MTT method:
The culture medium was aspirated from the wells and the cells were fixed for 1 hour or more by adding 10% trichloroacetic acid. Trichloroacetic acid was removed. The resultant was washed with H2O and stained with 0.4% SRB for 15 to 30 minutes. Excess SRB was removed. The resultant was washed with 1% acetic acid. The protein-bound SRB was dissolved by adding 10 mM of 100 μl Tris (trishydroxymethylaminomethane). Tests were carried out at the wavelength of 570 nm.
1.1.4 dilution and addition of β-glucuronidase: 1 to 2 mg of β-glucuronidase was weighed and dissolved in PBS to give a 2 mg/ml of stock solution. […] 80 μl of enzyme working solution was added to the enzyme-containing assay wells. The amount of β-glucuronidase was 1 μg/wells. No enzyme-containing assay wells were added to the 80 μl of complete medium.
The assay wells were charged with 20 μl of 10× compound working solution. The final volume was 200 μl per well. The DMSO concentration was 0.1%.
1.1.6 Compound inhibition activity calculation: The test included a compound test group, a compound-free positive solvent control group (PC) and a compound-free negative solvent control group (NC). […] The average inhibition rate and the standard deviation (SD) were obtained from the repeated test wells. The average inhibition rate was plotted on the basis of the compound concentration as an abscissa and distributed in the form of logarithms. The curve was fitted to the Logistic 4 parameter equation. […] The test was generally repeated to obtain 3 valid results.

SW620 = test: In vitro inhibition of human tumor cells, SW620, SRB method; assay type: cell-based
Text: (§1) The cells were allowed to adhere overnight.
(§2) Trichloroacetic acid was removed. […] Excess SRB was removed.
(§3) The DMSO concentration was 0.1%.

BxPC-3 = test: In vitro inhibition of human tumor cells, BxPC-3, MTT method; assay type: cell-based
Description: as §1
(§4) Adherent cells: Culture medium was aspirated and 100 μl/wells of basal culture (generally refers to medium without fetal bovine serum (FBS) and other additives) containing 0.5 mg/ml MTT were added. The cells were cultured for 3 hours. MTT-containing basal medium was aspirated and 100 μl/wells of DMSO were added to dissolve formazan.
(§5) Unstably adherent cells: Unstably adherent cells were directly added to the MTT solution to achieve the concentration of 0.5 mg/ml and cultured for 3 hours. The ternary solution in an equal volume to the system was added to the system to dissolve the formazan.
as §3

NCI-H460 = test: In vitro inhibition of human tumor cells, NCI-H460, MTT method; assay type: cell-based
Description: as §1, §4, §5, §3

HCT116 = test: In vitro inhibition of human tumor cells, HCT116, MTT method; assay type: cell-based
Description: as §1, §4, §5, §3

LoVo = test: In vitro inhibition of human tumor cells, LoVo, SRB method; assay type: cell-based
Text: as §1, §2, §3

[2] = test system: human small cell lung cancer NCI-H446; conditions: 20 mg/kg i.v. qw × 2; NCI-H446 model
Description: An allogeneic transplantation model of human small cell lung cancer NCI-H446 was established in nude mice subcutaneously using a tumor block inoculation method. When the tumor volume of the allogeneic transplantation was about 100 to 300 mm^3 and remained stable, the experimental animals were randomly divided into groups according to the size of the tumor volume (day 0, i.e., d0) using a remainder method. The tumor volume was measured 2 to 3 times a week. At the end of the dosage period, the experimental animals were sacrificed. The subcutaneous tumors were peeled and weighed. The anti-tumor activity of the drug against the model was evaluated based on tumor volume and tumor weight-related data.
The calculation formula of the tumor volume was: Volume=0.5×long diameter×short diameter×short diameter.
V0 was the resulting tumor volume measured at the time of dosing in groups (i.e., d0) and Vt was the tumor volume at each measurement.
T was the subject and C was the model control.
TRTV was the average RTV of the subject, and CRTV was the average RTV of the model control group.
Wn: average body weight of each group of experimental animals on day n, and W0: average body weight of each group of experimental animals on day 0.

[3] = No βGU (direct effects of compound on cells)

| Substance | IC50 (NCI-N87; Adding βGU) [nM] | IC50 (NCI-N87; No βGU) [nM] | Relative volume RTV (X ± S.D.) [1] | T/C (%) [1] [%] | Tumor inhibition rate (%) [1] [%] | Tumor weight (g, X ± S.D.) [1] [g] | IC50 (MDA-MB-468; Adding βGU) [nM] | IC50 (MDA-MB-468; No βGU) [nM] | IC50 (SW620; Adding βGU) [nM] | IC50 (SW620; No βGU) [nM] | IC50 (BxPC-3; Adding βGU) [nM] | IC50 (BxPC-3; No βGU) [nM] | IC50 (NCI-H460; Adding βGU) [nM] | IC50 (NCI-H460; No βGU) [nM] | IC50 (HCT116; Adding βGU (β-glucuronidase)) [nM] | IC50 (HCT116; [3]) [nM] | IC50 (LoVo; Adding βGU) [nM] | IC50 (LoVo; No βGU) [nM] | other results |
| --- | --- | --- | --- | --- | --- | --- | --- | --- | --- | --- | --- | --- | --- | --- | --- | --- | --- | --- | --- |
| (2S,3S,4S,5R,6S)-6-(3-((1-(2-(2-((4′-(E)-(8-amino-1-hydroxy-5,7-disulfonicnaphthalen-2-yl)diazenyl)-3,3′-dimethyl-[1,1′-biphenyl]-4-yl)amino)-3-oxopropoxy)ethyl)-1H-1,2,3-triazol-4-yl)methoxy)-4-((((S)-4,11-diethyl-4-hydroxy-3,14-dioxy-3,4,12,14-tetrahydro-1H-pyrano[3′,4′:6,7]indolazino[1,2-b]quinolin-9-yl)oxy)methyl)phenoxy)-3,4,5-trihydroxytetrahydro-2H-pyran-2-carboxylate trisodium [Example 101] | 51 | 1240 | 0.90 ± 0.20 | 24.2 | 81.6 | 0.501 ± 0.081 | 11 | 372 |  |  |  |  |  |  |  |  |  |  |  |
| (2S,3S,4S,5R,6S)-6-(3-((1-(3-(2-((4′-(E)-(8-amino-1-hydroxy-5,7-disulfonicnaphthalen-2-yl)diazenyl)-3,3′-dimethyl-[1,1′-biphenyl]-4-yl)amino)-2-oxoethoxy)propyl)-1H-1,2,3-triazol-4-yl)methoxy)-4-((((S)-4,11-diethyl-4-hydroxy-3,14-dioxy-3,4,12,14-tetrahydro-1H-pyrano[3′,4′:6,7]indolazino[1,7]quinolin-9-yl)oxy)methyl)phenoxy)-3,4, 5-trihydroxytetrahydro-2H-pyran-2-carboxylate trisodium [Example 96] | 30 | 964 | 0.78 ± 0.03 | 21.0 | 84.4 | 0.425 ± 0.091 | 7.5 | 213 |  |  |  |  |  |  |  |  |  |  |  |
| (2S,3S,4S,5R,6S)-6-(3-((1-(6-((4′-((E)-(8-amino-1-hydroxy-5,7-disulfonicnaphthalen-2-yl)diazenyl)-3,3′-dimethoxy-[1,1′-biphenyl]-4-yl)amino)-6-oxohexyl)-1H-1,2,3-triazol-4-yl)methoxy)-4-(((S)-4-ethyl-4-hydroxy-3,14-dioxy-3,4,12,14-tetrahydro-1H-pyrano[3′,4′:6,7]indolazino[1,2-b]quinolin-9-yl)oxy)methyl)phenoxy)-3,4,5-trihydroxytetrahydro-2H-pyran-2-carboxylate trisodium [Example 31] | 62 | 1770 |  |  |  |  | 11 | 329 | 10 | 220 | 21 | 518 | 19 | 540 | 9.3 | 339 | 32 | 699 |  |
| (2S,3S,4S,5R,6S)-6-(3-((1-(6-((4′-((E)-(8-amino-1-hydroxy-5,7-disulfonicnaphthalen-2-yl)diazenyl)-3,3′-dimethyl-[1,1′-biphenyl]-4-yl)amino)-6-oxohexyl)-1H-1,2,3-triazol-4-yl)methoxy)-4-((((S)-4,11-diethyl-4-hydroxy-3,14-dioxy-3,4,12,14-tetrahydro-1H-pyrano[3′,4′:6,7]indolazino[1,2-b]quinolin-9-yl)oxy)methyl)2-methylphenoxy)-3,4,5-trihydroxytetrahydro-2H-pyran-2-carboxylate trisodium [Example 14] | 26 | 1480 |  |  |  |  | 4.4 | 106 | 6.3 | 151 | 16 | 406 | 8.7 | 533 | 3.3 | 175 | 10 | 204 | Relative volume RTV (X ± S.D.) [2]: 0.69 ± 0.45; T/C (%) [2]: 10.2%; Tumor inhibition rate (%) [2]: 91.3%; Tumor weight (g, X ± S.D.) [2]: 0.085 ± 0.075 g |
